Source: patent publication US8680150B2, “Small molecule hematopoietic growth factor mimetic compounds that activate hematopoietic growth factor receptors” (Ligand Pharmaceuticals, Inc., priority 2009, dated 2014)

Test system: UT7/EPO Cell line
Assay: Cell proliferation assay in UT7/EPO cell line (ViaLight Plus)
Format: cell-based, human
Details: compound at 10 uM; efficacy relative to EPO (100%); UT7/EPO cells expressing endogenous EPO receptor, starved of EPO overnight; 72 hours at 37° C.
Experimental: The primary testing for the exemplified compounds was performed in UT7/EPO Cell line. UT7/EPO is human leukemia cell line, obtained from Dr. Norio Komatsu (Blood, Vol 82 (2), pp 456-464, 1993). These cells express endogenous EPO receptor and are dependant upon EPO for growth and proliferation. Briefly, the cells were starved of EPO overnight and plated in 96 or 384 well plates. The compounds were added to the cells at 10 uM concentration. The plates were then incubated at 37° C. for 72 hours. The proliferative effect of the compounds was measured by a commercially available kit from Lonza (ViaLight Plus).

SMILES	Activity (%)
COc1ccc(O)c(/C=N/NC(=O)c2cc3cc(OC)ccc3[nH]2)c1 [Compound 172, 5-Methoxyindole-2-carboxyl(2-hydroxy-5-methoxybenzylidene)hydrazide]	9.8%
COc1ccc(O)c(/C=N/NC(=O)COc2ccc3[nH]ccc3c2)c1 [Compound 173, 5-Indolyloxoacet(2-hydroxy-5-methoxybenzylidene)hydrazide]	12%
COc1ccc(O)c(/C=N/NC(=O)c2cc3cc(O)ccc3o2)c1 [Compound 174, 5-Hydroxybenzofuran-2-carboxyl(2-hydroxy-5-methoxybenzylidene)hydrazide]	19%
COc1ccc(O)c(/C=N/NC(=O)c2cc3cc(O)ccc3[nH]2)c1 [Compound 175, 5-Hydroxyindole-2-carboxyl(2-hydroxy-5-methoxybenzylidene)hydrazide]	4.3%
COCc1cccc(/C=N/NC(=O)c2cc3cc(O)ccc3o2)c1 [Compound 176, 5-Hydroxybenzofuran-2-carboxyl(3-methoxymethylbenzylidene)hydrazide]	19%
CN(C)c1ccc(C(=O)N/N=C/c2cccc(N(C)C)c2)cc1 [Compound 177, 4-Dimethylaminobenz(3-dimethylaminobenzylidene)hydrazide]	9.1%
CCNC(=O)/C=C/c1cccc(/C=N/NC(=O)c2ccc(N(C)C)cc2)c1 [Compound 179, 4-Dimethylaminobenz(2E-ethylaminocarboxyethenylbenzylidene)hydrazide]	4.3%
CN(C)c1ccc(C(=O)N/N=C/c2ccc3c(Cl)c[nH]c3c2)cc1 [Compound 180, 4-Dimethylaminobenz(3-chloro-6-indolidene)hydrazide]	3.2%
Cc1ccccc1/C=C/c1cccc(/C=N/NC(=O)c2ccc(N(C)C)cc2)c1 [Compound 181, 4-Dimethylaminobenz(2E-(2-methylphenyl)ethenylbenzylidene)hydrazide]	4.2%
CN(C)c1ccc(C(=O)N/N=C/c2cccc(/C=C/c3cccc(Cl)c3)c2)cc1 [Compound 182, 4-Dimethylaminobenz(2E-(3-chlorophenyl)ethenylbenzylidene)hydrazide]	11%
CN(C)c1ccc(C(=O)N/N=C/c2cccc(COCc3ccccc3)c2)cc1 [Compound 184, 4-Dimethylaminobenz(3-benzyloxymethylbenzylidene)hydrazide]	21%
CN(C)c1ccc(C(=O)N/N=C/c2cccc(/C=C/c3ccccc3Cl)c2)cc1 [Compound 185, 4-Dimethylaminobenz(2E-(2-chlorophenyl)ethenylbenzylidene)hydrazide]	16%
CN(C)c1ccc(C(=O)N/N=C/c2cccc(/C=C/c3ccc(Cl)cc3)c2)cc1 [Compound 186, 4-Dimethylaminobenz(2E-(4-chlorophenyl)ethenylbenzylidene)hydrazide]	9.6%
COCc1cccc(/C=N/NC(=O)c2ccc(N(C)C)cc2)c1 [Compound 187, 4-Dimethylaminobenz(3-methoxymethylbenzylidene)hydrazide]	17%
Cc1ccccc1COCc1cccc(/C=N/NC(=O)c2ccc(N(C)C)cc2)c1 [Compound 188, 4-Dimethylaminobenz(3-(2-methylbenzyloxy)methylbenzylidene)hydrazide]	5.5%
Cc1ccc(COCc2cccc(/C=N/NC(=O)c3ccc(N(C)C)cc3)c2)cc1 [Compound 189, 4-Dimethylaminobenz(3-(4-methylbenzyloxy)methylbenzylidene)hydrazide]	9.1%
CN(C)c1ccc(C(=O)N/N=C/c2cccc(/C=N/OCc3ccccc3)c2)cc1 [Compound 190, 4-Dimethylaminobenz(3-benzyloxyiminomethylbenzylidene)hydrazide]	20%
O=C(N/N=C/c1cccc(/C=C/c2ccccc2Cl)c1)c1ccc(-n2ccnc2)cc1 [Compound 191, 4-(1-Imidazolyl)benz(2E-(2-chlorophenyl)ethenylbenzylidene)hydrazide]	6.2%
C=CCO/N=C/c1cccc(/C=N/NC(=O)c2ccc(N(C)C)cc2)c1 [Compound 192, 4-Dimethylaminobenz(3-allyloxyiminomethylbenzylidene)hydrazide]	5.3%
COc1cccc(/C=N/NC(=O)c2ccc(-n3ccnc3)cc2)c1 [Compound 193, 4-(1-Imidazolyl)benz(3-methoxybenzylidene)hydrazide]	7.3%
O=C(N/N=C/c1cccc(/C=N/OCc2ccccc2)c1)c1ccc(-n2ccnc2)cc1 [Compound 194, 4-(1-Imidazolyl)benz(3-benzyloxyiminomethylbenzylidene)hydrazide]	5.2%
CN(C)c1ccc(C(=O)N/N=C/c2cccc(OCCO)c2)cc1 [Compound 195, 4-Dimethylaminobenz(3-(2-hydroxyethoxy)benzylidene)hydrazide]	7.3%
O=C(/C=C/c1ccc(-c2ccccc2)cc1)N/N=C/c1ccc(OCCO)cc1 [Compound 198, 2E-(4-Phenylphenyl)acryl(4-(2-hydroxyethoxy)benzylidene)hydrazide]	4.6%
COc1cccc(/C=N/NC(=O)c2ccc(NCCO)cc2)c1 [Compound 199, 4-(2-Hydroxyethylamino)benz(3-methoxybenzylidene)hydrazide]	3.0%
